Drawing on ChEMBL document CHEMBL1134199, “Peptoids as endothelin receptor antagonists” (Bioorg Med Chem Lett, 2001), this text covers IC50 for 14 compounds.

By IC50 is commonly meant the point on the concentration scale where inhibition reaches its midpoint.

In experiment [1] the target is T1, Endothelin receptor type B (Sus scrofa, UniProt P35463).
T1 sequence (P35463 whole entry): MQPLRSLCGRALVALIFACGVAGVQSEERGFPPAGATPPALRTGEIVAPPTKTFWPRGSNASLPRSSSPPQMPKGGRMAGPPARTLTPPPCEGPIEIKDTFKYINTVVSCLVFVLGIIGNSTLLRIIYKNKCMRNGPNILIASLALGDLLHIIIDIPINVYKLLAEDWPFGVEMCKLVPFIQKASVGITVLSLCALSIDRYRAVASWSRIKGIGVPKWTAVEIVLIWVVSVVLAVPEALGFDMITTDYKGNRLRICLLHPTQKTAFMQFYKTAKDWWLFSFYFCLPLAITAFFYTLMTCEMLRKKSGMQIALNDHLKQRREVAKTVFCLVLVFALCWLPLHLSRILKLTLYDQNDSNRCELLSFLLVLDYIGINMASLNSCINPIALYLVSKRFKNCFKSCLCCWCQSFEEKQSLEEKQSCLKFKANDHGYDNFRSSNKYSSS
Nature of the experiment: Ability to bind with Endothelin B receptor competitively in the presence of (125 I) endothelin using receptor binding assay.

The target in a further experiment is T2, Endothelin-1 receptor (Sus scrofa, UniProt Q29010).
T2 sequence (Q29010 whole entry): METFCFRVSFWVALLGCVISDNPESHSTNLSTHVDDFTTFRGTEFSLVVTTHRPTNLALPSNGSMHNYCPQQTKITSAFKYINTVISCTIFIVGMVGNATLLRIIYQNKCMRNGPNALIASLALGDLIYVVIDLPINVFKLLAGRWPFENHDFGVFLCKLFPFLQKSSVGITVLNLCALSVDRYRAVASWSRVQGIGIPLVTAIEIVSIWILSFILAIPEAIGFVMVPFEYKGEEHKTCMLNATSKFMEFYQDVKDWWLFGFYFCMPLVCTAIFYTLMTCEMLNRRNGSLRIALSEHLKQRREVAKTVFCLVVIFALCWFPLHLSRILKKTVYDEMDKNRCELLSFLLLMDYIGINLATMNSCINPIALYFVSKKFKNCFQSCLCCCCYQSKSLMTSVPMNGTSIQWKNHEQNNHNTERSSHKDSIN
Nature of the experiment: Ability to bind with Endothelin A receptor competitively in the presence of (125 I) endothelin using receptor binding assay.

Take `COc1ccc(CN(Cc2cc3c(cc2Cl)OCO3)C(Cc2ccc(O)cc2)C(=O)O)cc1` (stereo not given): the values for the IC50 (in experiment [1]; on Endothelin-1 receptor) were 5.5 µM and > 100 µM, respectively. For the compound `COc1ccc(CN(C(=O)c2ccc(OC)cc2)C(Cc2c[nH]c3ccccc23)C(=O)O)cc1` (stereo not given), the IC50 (in experiment [1]; on Endothelin-1 receptor) was > 100 µM each time. `COc1ccc(C(=O)N(Cc2cc3c(cc2Cl)OCO3)C(Cc2c[nH]c3ccccc23)C(=O)O)cc1` (stereo not given): the IC50 in experiment [1] amounted to 49 µM; on Endothelin-1 receptor, 30 µM.

Take `COc1ccc(CC(C(=O)O)N(Cc2ccc(OC)cc2)Cc2cc(OC)c(OC)c(OC)c2)cc1` (stereo not given): the IC50 in experiment [1] is 19 µM. As to `COc1ccc(CN(Cc2cc(OC)c(OC)c(OC)c2)C(Cc2c[nH]c3ccccc23)C(=O)O)cc1` (stereo not given), the IC50 amounted to 35 µM in experiment [1] and 42 µM on Endothelin-1 receptor. The corresponding values for `O=C(O)C(Cc1ccc(O)cc1)N(Cc1cc2c(cc1Cl)OCO2)C(=O)/C=C/c1ccc2c(c1)OCO2` (stereo not given) are 66 µM and 38 µM. As for `O=C(O)C(Cc1c[nH]c2ccccc12)N(Cc1cc2c(cc1Cl)OCO2)Cc1cc2c(cc1Cl)OCO2` (stereo not given), the IC50 amounted to 6.7 µM in experiment [1] and 16.3 µM at Endothelin-1 receptor. As for `COc1ccc(CN(Cc2cc(OC)cc(OC)c2)C(Cc2ccc(O)cc2)C(=O)O)cc1` (stereo not given), the IC50 at Endothelin-1 receptor was determined as 36 µM. In the case of `COc1cccc(CN(C(=O)/C=C/c2ccc3c(c2)OCO3)C(Cc2ccc(O)cc2)C(=O)O)c1` (stereo not given), the IC50 at Endothelin-1 receptor was found to be 31 µM. As for `COc1ccc(CN(C(=O)/C=C/c2ccc3c(c2)OCO3)C(Cc2ccc(O)cc2)C(=O)O)cc1` (stereo not given), the IC50 worked out at 12.6 µM in experiment [1] and 6 µM on Endothelin-1 receptor.

As to `O=C(O)C(Cc1c[nH]c2ccccc12)N(Cc1cc2c(cc1Cl)OCO2)C(=O)/C=C/c1ccc2c(c1)OCO2` (stereo not given), the IC50 in experiment [1] was determined as 0.66 µM; at Endothelin-1 receptor, 8.9 µM. As to `COc1ccc(CN(C(=O)/C=C/c2ccc3c(c2)OCO3)C(Cc2c[nH]c3ccccc23)C(=O)O)cc1` (stereo not given), the IC50 in experiment [1] amounted to 0.47 µM; on Endothelin-1 receptor, 10 µM. The corresponding values for `COc1ccc(CN(C(=O)/C=C/c2ccc3c(c2)OCO3)C(Cc2ccccc2)C(=O)O)cc1` (stereo not given) are 6.4 µM and 27 µM.

On to `CCOC(=O)CN(Cc1cc2c(cc1Cl)OCO2)C(Cc1ccc(O)cc1)C(=O)O` (stereo not given), for which the IC50 in experiment [1] turned out to be 55 µM; at Endothelin-1 receptor it was 21.3 µM.
